The source of these data is patent US6353009B1, “Method for the treatment and prevention of hyperuricemia” (Sankyo Company, Limited, priority 1997, dated 2002).

Where “and” joins values, the source holds several entries; their conditions need not be identical. Identical values can stand only once. A value given as a limit tells only on which side of the number the result lay.

For one series, the system named is blood uric acid. Kind of series: Improvement in hyperuricemia: blood uric acid level in patients given troglitazone. Format: in vivo, human. How it is done:
The level of uric acid in the blood of a patient may be measured in a conventional manner. Specifically, blood is collected before and after the administration, for a predetermined period, of a medicament to a patient suffering from hyperuricemia and then the blood uric acid level is measured, for example, by the uricase catalase method [Kageyama: Clin. Chim. Acta., 31, 421-426 (1971)]. A measuring kit employing the above method is commercially available (“Uricolor 400”, trade name; product of Ono Pharmaceutical Co., Ltd.)
4 adult human patients who had suffered from diabetes and hyperuricemia and whose blood uric acid level was not less than 7.0 mg/dl, were administered orally 200 mg of troglitazone twice a day (in the morning and in the evening). This administration was continued for 4 weeks. Both after and before administration, blood was collected and the blood uric acid level was measured.

Another series has as its system ddY mice (male). It counts as in vivo. The note with it: 300 mg/kg orally, three male ddY mice, observed for 5 days. The method, then:
The acute toxicity of troglitazone was measured in a conventional manner. Specifically, 300 mg/kg of troglitazone was administered orally to three ddY mice (male), which were then observed for 5 days.

Another series concerns uric acid. Particulars: clinical examination values, Rinsho Iyaku 9, Suppl.3, 14 (1993), cited from earlier work.

Turning to `Cc1c(C)c2c(c(C)c1O)CCC(C)(COc1ccc(CC3SC(=O)NC3=O)cc1)O2` (stereo not drawn) [troglitazone, 5-[4-(6-hydroxy-2,5,7,8-tetramethylchroman-2-ylmethoxy)benzyl]thiazolidine-2,4-dione], in the series with blood uric acid (adult human patients with diabetes and hyperuricemia, 200 mg orally twice a day for 4 weeks), the “Blood uric acid level, Week 4” value is 5.2 mg/dL and 5.3 mg/dL and 5.6 mg/dL. Further, the “Blood uric acid level, Week 0” value with blood uric acid (adult human patients with diabetes and hyperuricemia, before administration (baseline)) is 7.2 mg/dL and 7.6 mg/dL and 7.9 mg/dL. The “blood uric acid level after administration (summary of the Table)” value in the series with blood uric acid (patients with blood uric acid 7.0 mg/dl or greater, 200 mg orally twice a day, 4 weeks, normal range) was at most 6.0 mg/dL. The “survival (acute toxicity)” value in the series on ddY mice (male) is reported as “All of them survived”. For the same compound, in the series with uric acid (baseline), the “uric acid level before administration” value is 4.7±1.7. Further, the “uric acid level after administration” value with uric acid is given as 4.4±1.4.
